Test results reported in PMC6017704 (Molecules : A Journal of Synthetic Chemistry and Natural …, 2018).

Key:
VEGFR-2 (KDR) kinase = biological target: T1, VEGFR-2 (KDR) kinase (Homo sapiens, UniProt P35968); assay: VEGFR-2 kinase assay (HTRF KinEASE-TK); format: biochemical; conditions: for IC50: HTRF, ATP 3 µM, 40 min, dark condition, n = 3
T1 construct: purchased Carna Biosciences

[1] = tested on: human umbilical vein endothelial cells (PUMC-HUVEC-T1); assay: HUVEC cell anti-proliferation assay (MTT); format: cell-based; conditions: for inhibition ratio in HUVEC / viability at 10 µM: 10 µM; for viability at 1 µM / viability at 10 µM / IC50: Homo sapiens, 72 h, MTT; for viability at 1 µM / viability at 10 µM: read-out: Relative Cell Viability (%) ± SD (n = 3); for IC50: n = 3, read-out: IC50, HUVEC relative cell viability
Description: A major mediator of VEGF-driven responses in endothelial cells is VEGFR-2, which is considered to play a decisive role in both physiologic and pathologic angiogenesis. The homogeneous time-resolved fluorescence (HTRF) method was used in the assay that determined the inhibitory activities of target compounds against VEGFR-2 kinase. Owing to VEGFR-2 overexpression in human umbilical vein endothelial cells (HUVEC), these target compounds were further evaluated in vitro anti-proliferation activity against HUVEC. MTT assay was used in the cell assay. […] In order to ensure the repeatability of the activity test, we choose to complete biological evaluation under the dark condition.
SV40T transforms human umbilical vein endothelial cells (PUMC-HUVEC-T1) were gifts from Dr. Lihua Ding (Institute of Biotechnology, Beijing, China). MTT Cell Proliferation and Cytotoxicity Assay Kit (#GK-5605, Genview) was used to measure cell viability and proliferation. Metabolically active cells in part by the action of dehydrogenase enzymes reduced the yellow tetrazolium MTT to generate purple reducing equivalents such as NADH and NADPH. The resulting intracellular purple formazan can be solubilized and quantified by spectrophotometer.
For MTT assay, cells were seeded into separate 96-well plates at 5000 cells/well and cultured in an incubator containing 5% CO2 at 37 °C for 24 h. Subsequently, target compounds were dissolved into different concentrations with culture medium from 10 mM stock solutions in DMSO, respectively. Then target compounds were added and incubated at 37 °C for 72 h. All assays were performed in triplicate. The untreated groups were used as a vehicle of control. Following the 72-h incubation, discarded culture medium and washed with PBS once time followed by adding 180 µL of fresh culture medium. Cell viability was quantified with MTT assay. According to the manufacturer instructions, 20 µL of MTT solution that was previously thawed and equilibrated to room temperature was added to each well and plates were incubated at 37 °C for 4 h. Termination of culture, the supernatant was carefully discarded and added 150 µL of Formazan dissolution for 10 min vibration at room temperature. The OD value of each well was measured by a spectrophotometer at 490 nm and the inhibitory rates expressed as percentages of the vehicle control (100%). Data processing: ratio = Vsample/Vcontrol × 100%. Vsample is for compound treatment group while Vcontrol is for solvent control group. The GraphPad Prism 5.0 software was used to draw nonlinear regression model and calculated IC50 values.

T1 sequence (P35968 20-1356): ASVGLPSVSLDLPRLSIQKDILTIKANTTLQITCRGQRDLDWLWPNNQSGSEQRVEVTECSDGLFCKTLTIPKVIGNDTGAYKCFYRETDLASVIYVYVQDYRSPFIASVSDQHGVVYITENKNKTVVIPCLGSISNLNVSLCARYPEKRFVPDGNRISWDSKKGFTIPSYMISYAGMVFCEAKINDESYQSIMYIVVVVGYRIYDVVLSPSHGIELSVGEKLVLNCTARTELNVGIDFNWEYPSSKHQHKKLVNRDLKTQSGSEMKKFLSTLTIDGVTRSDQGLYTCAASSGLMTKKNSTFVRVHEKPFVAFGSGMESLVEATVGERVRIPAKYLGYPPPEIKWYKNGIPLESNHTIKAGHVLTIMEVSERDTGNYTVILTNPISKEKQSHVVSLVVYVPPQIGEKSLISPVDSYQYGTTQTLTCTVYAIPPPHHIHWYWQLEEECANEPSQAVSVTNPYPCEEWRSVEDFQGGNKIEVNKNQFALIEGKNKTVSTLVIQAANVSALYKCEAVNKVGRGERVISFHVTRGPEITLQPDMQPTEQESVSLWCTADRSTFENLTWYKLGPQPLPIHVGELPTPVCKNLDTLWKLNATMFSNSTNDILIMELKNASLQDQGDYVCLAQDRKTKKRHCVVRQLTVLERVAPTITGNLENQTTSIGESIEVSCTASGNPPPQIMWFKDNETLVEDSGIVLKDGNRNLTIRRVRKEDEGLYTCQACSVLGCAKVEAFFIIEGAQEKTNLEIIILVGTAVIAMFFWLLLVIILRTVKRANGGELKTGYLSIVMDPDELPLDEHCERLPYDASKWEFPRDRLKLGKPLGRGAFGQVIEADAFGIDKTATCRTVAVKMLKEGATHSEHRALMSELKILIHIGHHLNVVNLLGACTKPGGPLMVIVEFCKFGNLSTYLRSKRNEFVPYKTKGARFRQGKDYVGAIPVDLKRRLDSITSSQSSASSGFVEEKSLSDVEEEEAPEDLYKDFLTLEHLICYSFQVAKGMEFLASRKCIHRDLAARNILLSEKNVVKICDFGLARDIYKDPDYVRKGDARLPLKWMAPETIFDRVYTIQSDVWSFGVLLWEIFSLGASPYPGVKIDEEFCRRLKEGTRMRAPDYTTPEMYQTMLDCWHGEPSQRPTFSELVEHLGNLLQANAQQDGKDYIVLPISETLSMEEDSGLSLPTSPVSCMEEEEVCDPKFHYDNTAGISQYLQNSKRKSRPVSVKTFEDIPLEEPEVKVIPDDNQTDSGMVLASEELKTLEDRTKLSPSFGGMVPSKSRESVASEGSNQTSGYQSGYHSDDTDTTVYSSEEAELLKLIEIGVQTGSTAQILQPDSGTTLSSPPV

SMILES | IC50 (VEGFR-2 (KDR) kinase) | increase of VEGFR-2 activity compared with TM2 (VEGFR-2 (KDR) kinase; relative to TM2) | inhibition ratio in HUVEC [1] | viability at 1 µM [1] | viability at 10 µM [1] | IC50 [1]
CNC(=O)c1ccccc1Sc1ccc2c(N=Nc3ccc(N)cc3OC)n[nH]c2c1 [TM3, 2-(3-((4-amino-2-methoxyphenyl)diazenyl)-1H-indazol-6-ylthio)-N-methylbenzamide] | 195 ± 1.11 nM | more than ten times | ≤ 20% | 125 ± 8.92% | 84.1 ± 6.83% | –
CNC(=O)c1ccccc1Sc1ccc2c(N=Nc3c(OC)cc(N)cc3OC)n[nH]c2c1 [TM2, 2-(3-((4-amino-2,6-dimethoxyphenyl)diazenyl)-1H-indazol-6-ylthio)-N-methylbenzamide] | – | – | ≤ 20% | 107 ± 1.29% | 94.4 ± 5.01% | –
CNC(=O)c1ccccc1Sc1ccc2c(N=Nc3ccc(C)[nH]3)n[nH]c2c1 [TM11, N-methyl-2-(3-((5-methyl-1H-pyrrol-2-yl)diazenyl)-1H-indazol-6-ylthio)benzamide] | 330 ± 1.14 nM | – | exceeding 60% | 67.03 ± 0.19% | 31 ± 0.61% | 2150 nM
CNC(=O)c1ccccc1Sc1ccc2c(/C=C/c3ccccn3)n[nH]c2c1 [Axitinib, reference compound] | – | – | – | 80 ± 6.64% | 53.2 ± 9.11% | –
CNC(=O)c1ccccc1Sc1ccc2c(N=Nc3cccn3C)n[nH]c2c1 [TM6, N-methyl-2-(3-((1-methyl-1H-pyrrol-2-yl)diazenyl)-1H-indazol-6-ylthio)benzamide] | 2290 ± 1.17 nM | – | exceeding 60% | 97 ± 10.4% | 19.3 ± 3.82% | 5030 nM

Second part, led by results:

IC50 (VEGFR-2 (KDR) kinase) | increase of VEGFR-2 activity compared with TM2 (VEGFR-2 (KDR) kinase; relative to TM2) | SMILES | inhibition ratio in HUVEC [1] | viability at 1 µM [1] | viability at 10 µM [1] | IC50 [1]
201 ± 1.26 nM | – | CNC(=O)c1ccccc1Sc1ccc2c(N=Nc3[nH]c(C)cc3C)n[nH]c2c1 [TM9, 2-(3-((3,5-dimethyl-1H-pyrrol-2-yl)diazenyl)-1H-indazol-6-ylthio)-N-methylbenzamide] | – | 68.54 ± 0.29% | 32.2 ± 1.99% | 2180 nM
135 ± 1.25 nM | – | CNC(=O)c1ccccc1Sc1ccc2c(N=Nc3ccc(N(C)C)cc3)n[nH]c2c1 [TM4, 2-(3-((4-(dimethylamino)phenyl)diazenyl)-1H-indazol-6-ylthio)-N-methylbenzamide] | ≤ 20% | 94.1 ± 1.89% | 82.8 ± 5.32% | –
44 ± 1.15 nM | – | CNC(=O)c1ccccc1Sc1ccc2c(N=Nc3cc(C)[nH]c3C)n[nH]c2c1 [TM10, 2-(3-((2,5-dimethyl-1H-pyrrol-3-yl)diazenyl)-1H-indazol-6-ylthio)-N-methylbenzamide] | – | 99.29 ± 0.78% | 66.2 ± 4.43% | –
158 ± 1.14 nM | – | CNC(=O)c1ccccc1Sc1ccc2c(N=Nc3cc(C)n(C)c3C)n[nH]c2c1 [TM8, N-methyl-2-(3-((1,2,5-trimethyl-1H-pyrrol-3-yl)diazenyl)-1H-indazol-6-ylthio)benzamide] | – | 92.3 ± 9.05% | 61.3 ± 10.9% | –
123 ± 1.08 nM | – | CNC(=O)c1ccccc1Sc1ccc2c(N=Nc3ccc[nH]3)n[nH]c2c1 [TM7, 2-(3-((1H-pyrrol-2-yl)diazenyl)-1H-indazol-6-ylthio)-N-methylbenzamide] | exceeding 60% | 84.4 ± 4.35% | 39.1 ± 2.49% | 5730 nM
